The values below come from ChEMBL document CHEMBL3259526, “(11)C-labeling and preliminary evaluation of vortioxetine as a PET radioligand” (Bioorg Med Chem Lett, 2014).

Data set [1] is described as follows: Drug uptake in Danish Landrace pig thalamus at 124 MBq, iv after 90 mins by PET analysis. Type of data set: ADME, organism-based, Sus scrofa. The settings on record: in vivo, 1.5 h.
Data set [2] is described as follows: Drug uptake in Danish Landrace pig cerebellum at 124 MBq, iv after 90 mins by PET analysis. Type of data set: ADME, organism-based, Sus scrofa. The conditions noted are these: in vivo, 1.5 h.
A short description of data set [3]: Drug uptake in Danish Landrace pig brain at 124 MBq, iv after 60 mins by PET analysis. The format is ADME, organism-based, Sus scrofa. The conditions noted are these: in vivo, 1 h.
Data set [4] in a line: Drug uptake in Danish Landrace pig cortex at 124 MBq, iv after 90 mins by PET analysis. The format is ADME, organism-based, Sus scrofa. The settings on record: in vivo, 1.5 h.
Data set [5] can be described thus: Drug uptake in Danish Landrace pig hippocampus at 124 MBq, iv after 90 mins by PET analysis. The conditions noted are these: in vivo, 1.5 h. Type of data set: ADME, organism-based, Sus scrofa.
The nature of data set [6]: Plasma protein binding in pig plasma at 5 MBq after 2.5 hrs by equilibrium dialysis chamber method. Type of data set: ADME, cell-free, Sus scrofa. The conditions noted are these: read-out: PPB (converted). Background: Equilibrium dialysis compares concentrations on both sides of a semipermeable membrane.
A short description of data set [7]: Drug uptake in Danish Landrace pig striatum at 124 MBq, iv after 90 mins by PET analysis. The format is ADME, organism-based, Sus scrofa. The settings on record: in vivo, 1.5 h.

`Cc1ccc(Sc2ccccc2N2CCNCC2)c([11CH3])c1`: the Drug uptake result in data set [1], in data set [2], in data set [3], in data set [4], in data set [5] and in data set [7] was “Active” in each case. The fraction unbound at 2.5 h, 5 MBq in data set [6] was 0.02.
